# Test results from ChEMBL document CHEMBL4732046, “A red-light-activated sulfonamide porphycene for highly efficient photodynamic therapy against hypoxic tumor” (Eur J Med Chem, 2021).
# The source made the active and inactive calls. The rule behind the calls is not given here.
# What was measured:
# A-375 [1] = assay: (§1) Antitumor activity against human A-375 cells xenografted in BALB/c mouse assessed as tumor growth inhibition by measuring nuclear TUNEL-positive treated at high dose intratumorally once every 2 days for 2 weeks followed every dosing irradiated with 640 +/- 15 nm red LED for 4 hrs measured after 14 days treatment; type: functional, cell-based; conditions: time 14.0 day
# A-375 [2] = assay: Induction of intracellular reactive oxygen species production in human A-375 cells assessed as […] membrane damage at 200 nM irradiated with 640 +/- 15 nm red LED for 1 hr measured after 4 hrs by mito-tracker green based confocal microscopic method; type: functional, cell-based
# A-375 [3] = assay: Antiproliferative activity against human A-375 cells assessed as inhibition of cell proliferation irradiated with 640 +/- 15 nm red LED for 4 hrs in presence of 30 uM D-mannitol measured after 24 hrs under hypoxic condition by MTT assay; type: functional, cell-based
# A-375 [4] = assay: Photocytotoxicity against human A-375 cells assessed as reduction in cell viability irradiated with 640 +/- 15 nm red LED for 4 hrs measured after 24 hrs by MTT assay; type: functional, cell-based; conditions: A-375, light or radiation study
# [5] = Toxicity in C57BL/6 mouse assessed as effect on creatine kinase level measured upto 14 days; conditions: in vivo, 336 h, time <=14 day
# B16 [6] = assay: Induction of apoptosis in mouse B16 cells assessed as apoptotic cells at 200 nM irradiated with 640 +/- 15 nm red LED for 1 hrs after 24 hrs by Annexin V-FITC/propidium iodide staining based flow cytometric analysis relative to control; type: functional, cell-based
# [7] = Toxicity in C57BL/6 mouse xenografted with mouse B16 cells assessed as body weight at high dose intratumorally once every 2 days for 2 weeks followed every dosing irradiated with 640 +/- 15 nm red LED for 4 hrs measured after 14 days treatment; conditions: in vivo, other, 336 h, time 14 day
# B16 [8] = assay: Induction of apoptosis in mouse B16 cells assessed as increase in Bad level at 200 to 400 nM irradiated with 640 +/- 15 nm red LED for 1 hrs measured after 24 hrs by Western blot analysis; type: functional, cell-based; conditions: dose 200-400 nM
# B16 [9] = assay: Photocytotoxicity against mouse B16 cells assessed as reduction in cell viability irradiated with 640 +/- 15 nm red LED for 4 hrs measured after 24 hrs by MTT assay; type: functional, cell-based; conditions: B16, light or radiation study
# A-375 [10] = assay: Antiproliferative activity against human A-375 cells assessed as inhibition of cell proliferation irradiated with 640 +/- 15 nm red LED for 4 hrs in presence of 30 uM D-mannitol measured after 24 hrs by MTT assay; type: functional, cell-based
# A-375 [11] = assay: Induction of intracellular reactive oxygen species production in human A-375 cells irradiated with 640 +/- 15 nm red LED for 1 hrs measured after 4 hrs by DCFH-DA probe based flow cytometry; type: functional, cell-based; conditions: dose nM <=300, time 4.0 hrs
# B16 [12] = assay: Antiproliferative activity against mouse B16 cells assessed as inhibition of cell proliferation irradiated with 640 +/- 15 nm red LED for 4 hrs in presence of 30 uM L-histidine measured after 24 hrs under hypoxic condition by MTT assay; type: functional, cell-based
# B16 [13] = assay: as §1, with “mouse B16” for “human A-375”, “C57BL/6” for “BALB/c”; type: functional, cell-based; conditions: time 14.0 day
# [14] = Toxicity in C57BL/6 mouse model assessed as effect on kidney treated intratumorally once every 2 days for 2 weeks followed every dosing irradiated with 640 +/- 15 nm red LED for 4 hrs measured upto 28 days by H and E staining dependent light microscopy based histopathological analysis; type: tissue-based; conditions: in vivo, other, time <=28 day
# KYSE-70 cell line [15] = assay: Photocytotoxicity against human KYSE-70 cells assessed as reduction in cell viability irradiated with 640 +/- 15 nm red LED for 4 hrs measured after 24 hrs under hypoxic condition by MTT assay; type: functional, cell-based; conditions: KYSE-70, light or radiation study
# KYSE-70 cell line [16] = assay: Photocytotoxicity against human KYSE-70 cells assessed as reduction in cell viability irradiated with 640 +/- 15 nm red LED for 4 hrs measured after 24 hrs by MTT assay; type: functional, cell-based; conditions: KYSE-70, light or radiation study
# B16 [17] = assay: Antitumor activity against mouse B16 cells xenografted in C57BL/6J mouse assessed as reduction in tumor volume at high dose intratumorally once every 2 days for 2 weeks followed every dosing irradiated with 640 +/- 15 nm red LED for 4 hrs measured after 14 days treatment; type: functional, cell-based; conditions: time 14.0 day
# A-375 [18] = assay: Induction of morphological changes in human A-375 cells assessed as nuclear shrinkage at 100 to 300 nM incubated for 24 hrs by Hoechst 33258 staining based assay; type: functional, cell-based; conditions: dose 100-300 nM
# [19] = Drug uptake in mouse B16 cells lysosome after 24 hrs by Lyso-Tracker Red dye based confocal microscopic method; type: ADME, subcellular; conditions: b16, 24 h
# A-375 [20] = assay: Induction of apoptosis in human A-375 cells assessed as increase in cleaved caspase 9 level at 100 to 300 nM irradiated with 640 +/- 15 nm red LED for 1 hrs measured after 24 hrs by Western blot analysis; type: functional, cell-based; conditions: dose 100-300 nM
# B16 [21] = assay: Induction of apoptosis in mouse B16 cells assessed as increase in Bax level at 200 to 400 nM irradiated with 640 +/- 15 nm red LED for 1 hrs measured after 24 hrs by Western blot analysis; type: functional, cell-based; conditions: dose 200-400 nM
# [22] = Toxicity in C57BL/6 mouse model assessed as effect on liver treated intratumorally once every 2 days for 2 weeks followed every dosing irradiated with 640 +/- 15 nm red LED for 4 hrs measured upto 28 days by H and E staining dependent light microscopy based histopathological analysis; type: tissue-based; conditions: in vivo, other, time <=28 day
# [23] = Drug uptake in human A-375 cells incubated for 24 hrs in presence of 2-deoxyglucose and sodium azide by mito-tracker green based confocal microscopic method; type: ADME, cell-based; conditions: a-375, 24 h
# A-375 [24] = assay: Induction of mitochondrial membrane potential disruption in human A-375 cells assessed as reduction in red fluorescence upto 300 nM irradiated with 640 +/- 15 nm red LED for 1 hrs measured after 24 hrs by JC1 staining based fluorescence microscopy; type: functional, cell-based; conditions: dose nM <=300, time 24.0 hrs
# [25] = Toxicity in C57BL/6 mouse model assessed as effect on heart treated intratumorally once every 2 days for 2 weeks followed every dosing irradiated with 640 +/- 15 nm red LED for 4 hrs measured upto 28 days by H and E staining dependent light microscopy based histopathological analysis; type: tissue-based; conditions: in vivo, other, time <=28 day
# A-375 [26] = assay: Induction of apoptosis in human A-375 cells assessed as increase in Bad level at 100 to 300 nM irradiated with 640 +/- 15 nm red LED for 1 hrs measured after 24 hrs by Western blot analysis; type: functional, cell-based; conditions: dose 100-300 nM
# [27] = Toxicity in C57BL/6 mouse assessed as effect on alanine aminotransferase level measured after 2 days; conditions: in vivo, 48 h, time 2 day
# B16 [28] = assay: Induction of intracellular reactive oxygen species production in mouse B16 cells assessed as […] membrane damage at 200 nM irradiated with 640 +/- 15 nm red LED for 1 hr measured after 4 hrs by mito-tracker green based confocal microscopic method; type: functional, cell-based
# HeLa = assay: Photocytotoxicity against human HeLa cells assessed as reduction in cell viability irradiated with 640 +/- 15 nm red LED for 4 hrs measured after 24 hrs under hypoxic condition by MTT assay; type: functional, cell-based; conditions: light or radiation study
# [29] = Drug uptake in mouse B16 cells upto 2 hrs by flow cytometric analysis; type: ADME, cell-based; conditions: b16, 2 h
# B16 [30] = assay: Induction of mitochondrial membrane potential disruption in mouse B16 cells assessed as reduction in red fluorescence upto 400 nM irradiated with 640 +/- 15 nm red LED for 1 hrs measured after 24 hrs by JC1 staining based fluorescence microscopy; type: functional, cell-based; conditions: dose nM <=400, time 24.0 hrs
structure (smiles),measurement,setting,value
CC(C)(C)C1=Cc2nc1ccc1[nH]c(cc1S(=O)(=O)NCCOCCO)c1nc(ccc3[nH]c2cc3C(C)(C)C)C(C(C)(C)C)=C1,Activity,A-375 [1],Active
same,Activity,A-375 [2],Active
same,Activity,A-375 [3],inactive
same,DC50,A-375 [4],192 nM
same,Activity,[5],Non-Toxic
same,Activity,B16 [6],Active
same,Activity,[7],Non-Toxic
same,Activity,B16 [8],Active
same,DC50,B16 [9],323 nM
same,Activity,A-375 [10],inactive
same,Activity,A-375 [11],Dose-dependent effect
same,Activity,B16 [12],Active
same,Activity,B16 [13],Active
same,Activity,[14],Non-Toxic
same,DC50,KYSE-70 cell line [15],51 nM
same,DC50,KYSE-70 cell line [16],31 nM
same,Activity,B16 [17],Active
same,Activity,A-375 [18],Active
same,Drug uptake,[19],Active
same,Activity,A-375 [20],Active
same,Activity,B16 [21],Active
same,Activity,[22],Non-Toxic
same,Drug uptake,[23],Not Active
same,Activity,A-375 [24],Active
same,Activity,[25],Non-Toxic
same,Activity,A-375 [26],Active
same,Activity,[27],Toxic
same,Activity,B16 [28],Active
same,DC50,HeLa,49 nM
same,Drug uptake,[29],Active
same,Activity,B16 [30],Active
